These results are taken from ChEMBL document CHEMBL1221174, “Evolution of glutamate interactions during binding to a glutamate receptor” (Nat Chem Biol, 2005).

Calls of active or inactive are those of the source. No cut-off for these calls is given here.

Assay [1] can be described thus: Binding affinity to Glutamate receptor 2 E705D mutant S1S2 ligand binding domain assessed as induction protein vibrational state by time resolved FTIR difference spectra method.
Assay [2] can be described thus: Binding affinity to Glutamate receptor 2 Y450F mutant S1S2 ligand binding domain assessed as induction protein vibrational state by time resolved FTIR difference spectra method.

Take `N[C@@H](CCC(=O)O)C(=O)O`: the outcome in assay [1] and in assay [2] was Active.
